The text below walks through data of patent US20060058320A1, “[1,2,4] Triazolo[1,5-c]pyrimidine derivatives” (KYOWA HAKKO KOGYO CO., LTD., priority 2002, published 2006).

Counter-ions that a name gives are not always drawn.

T1 sequence (P30543 whole entry): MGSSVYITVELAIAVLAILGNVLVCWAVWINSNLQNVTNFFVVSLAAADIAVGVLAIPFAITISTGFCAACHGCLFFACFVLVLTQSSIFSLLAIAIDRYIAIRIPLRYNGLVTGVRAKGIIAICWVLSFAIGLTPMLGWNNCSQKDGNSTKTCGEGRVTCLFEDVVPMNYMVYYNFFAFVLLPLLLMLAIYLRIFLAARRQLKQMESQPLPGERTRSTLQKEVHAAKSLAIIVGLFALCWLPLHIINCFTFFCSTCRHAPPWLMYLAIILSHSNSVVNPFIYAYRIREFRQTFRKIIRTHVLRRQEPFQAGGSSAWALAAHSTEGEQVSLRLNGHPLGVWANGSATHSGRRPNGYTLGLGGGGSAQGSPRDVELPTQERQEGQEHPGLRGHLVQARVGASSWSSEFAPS

One data set addresses T1, adenosine A2A receptor (Rattus norvegicus, UniProt P30543).
T1 construct: from tissue; host or cells: rat corpus striatum membrane preparation
Kind of data set: Adenosine A2A receptor binding test (3H-CGS 21680 binding). Particulars: test compound 10^−7 mol/L; 3H-CGS 21680 binding, rat corpus striatum. The method, then:
The test was carried out according to the method of Bruns et al. [Molecular Pharmacology, vol. 29, p.
Rat corpus striatum was suspended in an ice-cold 50 mmol/L tris(hydroxymethyl)aminomethane hydrochloride (referred to as “Tris HCl” hereinafter) buffer (pH 7.7) using a Polytron homogenizer (produced by Kinematica Co.). The suspension was centrifuged (50,000×g, 10 minutes), and the resulting precipitate was again suspended in the same amount of a 50 mmol/L Tris HCl buffer, followed by centrifugation under the same conditions. The resulting finalprecipitate was again suspended in a 50 mmol/L-Tris HCl buffer [containing 10 mmol/L of magnesium chloride and 0.02 unit/mg tissue of adenosine deaminase (produced by Sigma Co.)] so that the tissue concentration was 5 mg (wet weight)/mL.
The radioactivity on the filter was determined with a liquid scintillation counter (produced by Packard Instrument Co.).
In the equation, X represents Amount of binding in the presence of a medicament, Y represents Amount of nonspecific binding, and Z represents Amount of total binding.
Turning to “5-Amino-2-(2-furyl)-7-(2-phenylthienyl)[1,2,4]triazolo[1,5-c]pyrimidine [Compound 65]”, the “A2A Receptor inhibition rate (%) at 10^−7 mol/L” value was determined as 96%.

Staying with this data set, now noted: test compound 10^−7 mol/L; 3H-CGS 21680 binding, rat corpus striatum; read-out: A2A Receptor inhibition rate (%) at 10^−7 mol/L.
In the case of `Nc1nc(CNCCc2ccccn2)cc2nc(-c3ccco3)nn12` [Compound 44, 5-Amino-7-[2-(2-pyridyl)ethylaminomethyl]-2-(2-furyl)-[1,2,4]triazolo[1,5-c]pyrimidine dihydrochloride], the inhibition at 0.1 µM was found to be 56%. On the same count and under the same terms, for `Nc1nc(/C=C/CNCC2CC2)cc2nc(-c3ccco3)nn12` [Compound 68, 5-Amino-7-[3-(cyclopropylmethylamino)-(E)-propan-1-en-1-yl]-2-(2-furyl)[1,2,4]triazolo[1,5-c]pyrimidine] the value was 96%; for `Nc1nc(CN2CCN(CC3CC3)CC2)cc2nc(-c3ccco3)nn12` [Compound 50, 5-Amino-7-[4-(cyclopropylmethyl)piperazin-1-ylmethyl]-2-(2-furyl)[1,2,4]triazolo[1,5-c]pyrimidine dihydrochloride], 65%. Consider `CN(Cc1cccnc1Cl)C(=O)c1cc2nc(-c3ccco3)nn2c(N)n1` [Compound 128, 5-Amino-2-(2-furyl)[1,2,4]triazolo[1,5-c]pyrimidine-7-carboxylic acid [N-(2-chloropyridin-3-ylmethyl)-N-methyl]-amide], for which the inhibition at 0.1 µM amounted to 59%.

As to `COC(C)(C)c1cc2nc(-c3ccco3)nn2c(N)n1` [Compound 25, 5-Amino-2-(2-furyl)-7-(1-methyl-1-methoxyethyl)[1,2,4]-triazolo[1,5-c]pyrimidine], the inhibition at 0.1 µM was 47%. Turning to `COc1cc(CNCc2cc3nc(-c4ccco4)nn3c(N)n2)cc(OC)c1` [Compound 43, 5-Amino-7-[(3,5-dimethoxybenzylamino)methyl]-2-(2-furyl)-[1,2,4]triazolo[1,5-c]pyrimidine dihydrochloride], the inhibition at 0.1 µM came out at 60%. On to `CC(=O)NCCNCc1ccc(-c2cc3nc(-c4ccco4)nn3c(N)n2)cc1` [Compound 16, 7-{4-[2-(N-acetylamino)ethylaminomethyl]phenyl}-5-amino-2-(2-furyl)[1,2,4]triazolo[1,5-c]pyrimidine monohydrochloride], for which the inhibition at 0.1 µM is 36%.

Tested on in a further data set: not given
Assay: not given
Conditions: not given
Compound `COc1cc(CNCc2ccc(-c3cc4nc(-c5ccco5)nn4c(N)n3)cc2)cc(OC)c1` (as salt: hydrochloride) [Compound 17, 5-Amino-7-[4-(3,5-dimethoxybenzylaminomethyl)phenyl]-2-(2-furyl)[1,2,4]triazolo[1,5-c]pyrimidine monohydrochloride] showed a melting point of 224.6 to 225.2 °C.

With `CCOCc1cc2nc(-c3ccco3)nn2c(N)n1` [Compound 24, 5-Amino-7-ethoxymethyl-2-(2-furyl) [1,2,4]triazolo[1,5-c]pyrimidine], the melting point lay in the range of 153.8 to 154.6 °C. As for `Nc1nc(-c2cccc(CNCCc3ccccn3)c2)cc2nc(-c3ccco3)nn12` [Compound 19, 5-Amino-2-(2-furyl)-7-{3-[2-(2-pyridyl)ethylaminomethyl]-phenyl}[1,2,4]triazolo[1,5-c]pyrimidine], the melting point was in the range of 159.2 to 159.4 °C. Still for that read-out and setting: as for `CN(Cc1ccccc1)C(=O)c1cc2nc(-c3ccco3)nn2c(N)n1` (as salt: HCl) [Compound 78, 5-Amino-2-(2-furyl)[1,2,4]triazolo[1,5-c]pyrimidine-7-carboxylic acid (N-benzyl-N-methyl)amide], the figure is 188.5 to 189.1 °C. The compound `COc1ccc(CNCc2cc3nc(-c4ccco4)nn3c(N)n2)cc1OC` (as salt: hydrochloride) [Compound 42, 5-Amino-7-(3,4-dimethoxybenzylaminomethyl)-2-(2-furyl)-[1,2,4]triazolo[1,5-c]pyrimidine dihydrochloride] yielded a melting point of 241.2 to 241.5 °C.

`CC(=O)NCCNCc1ccccc1-c1cc2nc(-c3ccco3)nn2c(N)n1` (as salt: hydrochloride) [Compound 7, 5-Amino-7-{2-[2-(N-acetylamino)ethylaminomethyl]phenyl}-2-(2-furyl)[1,2,4]triazolo[1,5-c]pyrimidine monohydrochloride] showed a melting point of 230.8 to 231.3 °C. In turn, `CCNC(=O)c1cc2nc(-c3ccco3)nn2c(N)n1` [Compound 98, 5-Amino-2-(2-furyl)[1,2,4]triazolo[1,5-c]pyrimidine-7-carboxylic acid ethylamide] showed a melting point of 178.5 to 178.9 °C. `Nc1nc(C2=CCN(CC3CC3)CC2)cc2nc(-c3ccco3)nn12` registered a melting point of 196.9 to 197.4 °C. `CCN1CCN(Cc2ccccc2-c2cc3nc(-c4ccco4)nn3c(N)n2)CC1` (as salt: hydrochloride) showed a melting point of 253 to 253.4 °C. Take `CC(=O)NCCNCc1ccc(-c2cc3nc(-c4ccco4)nn3c(N)n2)cc1` (as salt: hydrochloride) [Compound 16, 7-{4-[2-(N-acetylamino)ethylaminomethyl]phenyl}-5-amino-2-(2-furyl)[1,2,4]triazolo[1,5-c]pyrimidine monohydrochloride]: the melting point was in the range of 238.5 to 240 °C. Consider `Nc1nc(COc2ccccc2)cc2nc(-c3ccco3)nn12`, for which the melting point was 247.2 to 247.4 °C. Take `Nc1nc(-c2csc(NCCN3CCOCC3)n2)cc2nc(-c3ccco3)nn12` [Compound 59, 5-Amino-2-(2-furyl)-7-[2-(2-morpholinoethylamino)thiazol-4-yl][1,2,4]triazolo[1,5-c]pyrimidine]: the melting point was 274.7 to 275 °C (dec.). The compound `Nc1nc(-c2ccncc2)cc2nc(-c3ccco3)nn12` [Compound 54, 5-Amino-2-(2-furyl)-7-(4-pyridyl)[1,2,4]triazolo[1,5-c]-pyrimidine] showed a melting point of 279.2 to 279.9 °C. The same measure, in the same setting: for `COc1cc(CNCc2cc3nc(-c4ccco4)nn3c(N)n2)cc(OC)c1` (as salt: hydrochloride) [Compound 43, 5-Amino-7-[(3,5-dimethoxybenzylamino)methyl]-2-(2-furyl)-[1,2,4]triazolo[1,5-c]pyrimidine dihydrochloride] the value was 238.5 to 238.7 °C; for `COc1ccc(CN(Cc2cc3nc(-c4ccco4)nn3c(N)n2)C(C)=O)cc1OC` [Compound 34, 7-[(N-acetyl-3,4-dimethoxybenzylamino)methyl]-5-amino-2-(2-furyl)[1,2,4]triazolo[1,5-c]pyrimidine], 136 to 136.5 °C.

As to `Nc1nc(-c2ccco2)cc2nc(-c3ccco3)nn12`, the melting point was 250.2 to 250.4 °C. For `Nc1nc(-c2cncnc2)cc2nc(-c3ccco3)nn12` [Compound 56, 5-Amino-2-(2-furyl)-7-(5-pyrimidinyl)[1,2,4]triazolo[1,5-c]-pyrimidine], the melting point was 271 °C (dec.). Consider `Nc1nc(/C=C/CNCC2CC2)cc2nc(-c3ccco3)nn12` (as salt: HCl) [Compound 68, 5-Amino-7-[3-(cyclopropylmethylamino)-(E)-propan-1-en-1-yl]-2-(2-furyl)[1,2,4]triazolo[1,5-c]pyrimidine], for which the melting point is 263.5 to 264.2 °C. In the case of `Nc1nc(C2=CCN(CC(F)(F)F)CC2)cc2nc(-c3ccco3)nn12`, the melting point was 247.5 to 248.2 °C (dec.).

With `Nc1nc(COc2cccc(Br)c2)cc2nc(-c3ccco3)nn12`, the melting point fell in the range of 261.5 to 261.9 °C. The same measure, in the same setting: as for `Nc1nc(Cn2ccccc2=O)cc2nc(-c3ccco3)nn12` [Compound 37, 5-Amino-2-(2-furyl)-7-(2-oxopyridin-1-ylmethyl)[1,2,4]-triazolo[1,5-c]pyrimidine], the figure is 239.2 to 239.6 °C; as for `Nc1nc(-c2ccccc2C=O)cc2nc(-c3ccco3)nn12` [Compound 2, 5-Amino-7-(2-formylphenyl)-2-(2-furyl)[1,2,4]triazolo[1,5-c]pyrimidine], 224 to 224.5 °C. The same measure, in the same setting: for `COCCN(CCOC)C(=O)c1cc2nc(-c3ccco3)nn2c(N)n1` [Compound 88, 5-Amino-2-(2-furyl)[1,2,4]triazolo[1,5-c]pyrimidine-7-carboxylic acid [N,N-bis(2-methoxyethyl)]amide] the value was 190.5 to 190.8 °C; for `Nc1nc(COc2cccnc2)cc2nc(-c3ccco3)nn12` [Compound 31, 5-Amino-2-(2-furyl)-7-(pyridin-3-yloxymethyl)[1,2,4]triazolo[1,5-c]pyrimidine], 253.5 to 254 °C. `Nc1nc(CNc2ccccc2)cc2nc(-c3ccco3)nn12` [Compound 36, 5-Amino-7-anilinomethyl-2-(2-furyl)[1,2,4]triazolo[1,5-c]-pyrimidine] yielded a melting point of 279.2 to 279.6 °C. In turn, `Nc1nc(CNCCCN2CCCC2=O)cc2nc(-c3ccco3)nn12` (as salt: hydrochloride) [Compound 47, 5-Amino-2-(2-furyl)-7-[3-(2-oxopyrrolidin-1-yl)propylamino-methyl][1,2,4]triazolo[1,5-c]pyrimidine dihydrochloride] displayed a melting point of 229.1 to 229.8 °C. `CC(C)(O)CN1CC=C(c2cc3nc(-c4ccco4)nn3c(N)n2)CC1` showed a melting point of 197.8 to 198.1 °C. `Nc1nc(COc2ccccc2F)cc2nc(-c3ccco3)nn12` [Compound 30, 5-Amino-7-(2-fluorophenoxymethyl)-2-(2-furyl) [1,2,4]-triazolo[1,5-c]pyrimidine] returned a melting point of 196.8 to 197.1 °C. The compound `CC(=O)NCCNC(=O)c1cc2nc(-c3ccco3)nn2c(N)n1` came in with a melting point of 233.8 to 234 °C.
